Source: patent publication US20230117470A1, “SUBSTITUTED PYRAZOLE COMPOUNDS AS TOLL RECEPTOR INHIBITORS” (BRISTOL-MYERS SQUIBB COMPANY, priority 2019, published 2023)

Assays:
Format in all cases: cell-based
human TLR7 = biological target: T1, human TLR7 (Homo sapiens, UniProt Q9NYK1); experiment: TLR7 inhibition reporter assay (HEK-Blue cells, SEAP reporter, gardiquimod stimulation); settings: HEK-Blue cells overexpressing human TLR7, SEAP reporter, gardiquimod 7.5 μM
T1 construct: host or cells: HEK-Blue cells
T1 sequence (Q9NYK1 27-1049): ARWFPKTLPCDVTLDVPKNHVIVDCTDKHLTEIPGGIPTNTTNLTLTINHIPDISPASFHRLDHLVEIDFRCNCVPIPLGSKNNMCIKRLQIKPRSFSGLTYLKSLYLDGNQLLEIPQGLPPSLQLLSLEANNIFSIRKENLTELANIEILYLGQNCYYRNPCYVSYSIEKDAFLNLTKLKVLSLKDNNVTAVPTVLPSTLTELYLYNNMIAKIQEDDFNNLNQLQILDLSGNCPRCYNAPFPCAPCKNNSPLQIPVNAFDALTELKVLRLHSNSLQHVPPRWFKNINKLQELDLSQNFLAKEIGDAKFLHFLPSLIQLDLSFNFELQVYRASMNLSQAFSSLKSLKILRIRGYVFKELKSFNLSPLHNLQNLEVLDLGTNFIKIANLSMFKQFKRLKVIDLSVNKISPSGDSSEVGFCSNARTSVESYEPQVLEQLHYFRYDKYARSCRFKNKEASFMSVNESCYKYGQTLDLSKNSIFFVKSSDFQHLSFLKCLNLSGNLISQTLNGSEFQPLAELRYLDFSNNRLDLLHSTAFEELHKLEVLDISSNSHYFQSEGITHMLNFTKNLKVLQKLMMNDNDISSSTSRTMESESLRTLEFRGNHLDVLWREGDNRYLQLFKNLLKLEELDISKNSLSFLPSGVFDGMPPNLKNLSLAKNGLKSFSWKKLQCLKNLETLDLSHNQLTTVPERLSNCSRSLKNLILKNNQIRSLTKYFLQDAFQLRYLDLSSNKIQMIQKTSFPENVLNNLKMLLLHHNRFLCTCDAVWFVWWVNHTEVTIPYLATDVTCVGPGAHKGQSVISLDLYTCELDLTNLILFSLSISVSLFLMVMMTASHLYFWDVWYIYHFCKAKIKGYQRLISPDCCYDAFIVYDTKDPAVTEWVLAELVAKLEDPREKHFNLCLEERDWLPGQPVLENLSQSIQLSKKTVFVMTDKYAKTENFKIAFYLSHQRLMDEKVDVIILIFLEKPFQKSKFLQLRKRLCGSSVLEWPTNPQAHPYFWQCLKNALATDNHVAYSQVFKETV
Summary of the method: (§1)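 Percent inhibition of agonist-induced SEAP, set between agonist+DMSO wells and known-inhibitor wells, after 22 h at 37° C. Compounds (0.05 nM-50 μM final) were added 30 min at room temperature before ligand: gardiquimod 7.5 μM for TLR7, R848 15.9 μM for TLR8, ODN2006 5 nM for TLR9. Human receptors overexpressed in HEK-Blue reporter cells.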

human TLR8 = biological target: T2, human TLR8 (Homo sapiens, UniProt Q9NR97); experiment: TLR8 inhibition reporter assay (HEK-Blue cells, SEAP reporter, R848 stimulation); settings: HEK-Blue cells overexpressing human TLR8, SEAP reporter, R848 15.9 μM
T2 construct: host or cells: HEK-Blue cells
T2 sequence (Q9NR97 27-1041): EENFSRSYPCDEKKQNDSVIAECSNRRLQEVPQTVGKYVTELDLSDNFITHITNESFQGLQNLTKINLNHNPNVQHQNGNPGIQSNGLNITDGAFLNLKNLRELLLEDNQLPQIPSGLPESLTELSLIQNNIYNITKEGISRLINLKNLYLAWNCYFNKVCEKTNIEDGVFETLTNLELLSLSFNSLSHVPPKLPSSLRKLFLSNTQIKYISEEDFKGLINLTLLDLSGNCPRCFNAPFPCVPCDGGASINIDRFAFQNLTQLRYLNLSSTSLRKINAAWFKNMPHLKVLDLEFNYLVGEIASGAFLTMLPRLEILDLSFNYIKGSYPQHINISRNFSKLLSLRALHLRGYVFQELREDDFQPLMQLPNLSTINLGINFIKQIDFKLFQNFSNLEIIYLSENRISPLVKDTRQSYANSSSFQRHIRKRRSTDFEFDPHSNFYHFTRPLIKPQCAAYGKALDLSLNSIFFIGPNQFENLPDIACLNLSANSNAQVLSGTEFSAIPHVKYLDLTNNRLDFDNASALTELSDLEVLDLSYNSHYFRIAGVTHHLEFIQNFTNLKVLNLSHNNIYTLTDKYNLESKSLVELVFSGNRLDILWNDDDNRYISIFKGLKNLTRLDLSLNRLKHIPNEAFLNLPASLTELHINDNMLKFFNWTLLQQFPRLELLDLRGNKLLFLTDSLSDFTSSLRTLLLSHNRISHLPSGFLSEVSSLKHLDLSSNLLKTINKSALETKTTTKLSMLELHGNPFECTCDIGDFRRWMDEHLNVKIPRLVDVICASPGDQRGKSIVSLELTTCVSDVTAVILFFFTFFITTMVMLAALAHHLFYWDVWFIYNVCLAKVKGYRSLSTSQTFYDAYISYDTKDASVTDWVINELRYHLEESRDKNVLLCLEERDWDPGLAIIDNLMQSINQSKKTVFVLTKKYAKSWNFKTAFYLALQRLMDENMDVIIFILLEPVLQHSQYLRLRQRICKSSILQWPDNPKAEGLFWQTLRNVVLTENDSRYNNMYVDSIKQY
Summary of the method: as §1

human TLR9 = biological target: T3, human TLR9 (Homo sapiens, UniProt Q9NR96); experiment: TLR9 inhibition reporter assay (HEK-Blue cells, SEAP reporter, ODN2006 stimulation); settings: HEK-Blue cells overexpressing human TLR9, SEAP reporter, ODN2006 5 nM
T3 construct: host or cells: HEK-Blue cells
T3 sequence (Q9NR96 26-1032): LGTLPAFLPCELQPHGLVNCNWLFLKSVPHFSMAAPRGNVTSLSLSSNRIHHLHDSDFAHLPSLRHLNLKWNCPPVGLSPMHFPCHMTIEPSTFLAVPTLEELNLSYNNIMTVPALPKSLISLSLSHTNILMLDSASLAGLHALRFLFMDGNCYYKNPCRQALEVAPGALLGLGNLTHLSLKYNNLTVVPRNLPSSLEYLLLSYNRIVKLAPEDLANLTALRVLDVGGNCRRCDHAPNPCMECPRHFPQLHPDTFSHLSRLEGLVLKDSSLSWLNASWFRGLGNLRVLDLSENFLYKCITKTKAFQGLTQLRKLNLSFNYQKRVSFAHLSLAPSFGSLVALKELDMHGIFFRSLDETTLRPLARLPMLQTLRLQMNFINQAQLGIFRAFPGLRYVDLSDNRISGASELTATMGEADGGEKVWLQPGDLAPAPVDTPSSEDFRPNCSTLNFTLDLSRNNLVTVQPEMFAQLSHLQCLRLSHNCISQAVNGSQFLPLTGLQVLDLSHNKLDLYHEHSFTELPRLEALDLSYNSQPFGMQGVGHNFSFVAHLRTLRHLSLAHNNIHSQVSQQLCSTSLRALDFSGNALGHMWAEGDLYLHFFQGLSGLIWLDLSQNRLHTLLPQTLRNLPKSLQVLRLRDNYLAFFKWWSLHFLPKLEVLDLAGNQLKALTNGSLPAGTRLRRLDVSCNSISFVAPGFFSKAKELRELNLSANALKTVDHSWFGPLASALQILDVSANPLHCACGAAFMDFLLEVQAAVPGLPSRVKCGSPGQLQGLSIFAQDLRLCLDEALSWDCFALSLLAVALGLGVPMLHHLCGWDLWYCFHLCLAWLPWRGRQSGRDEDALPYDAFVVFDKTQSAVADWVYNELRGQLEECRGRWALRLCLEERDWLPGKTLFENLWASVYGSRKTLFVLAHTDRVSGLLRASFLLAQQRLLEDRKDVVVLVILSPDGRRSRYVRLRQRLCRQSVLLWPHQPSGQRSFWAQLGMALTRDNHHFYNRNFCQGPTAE
Summary of the method: as §1

SMILES	IC50 (human TLR7) [nM]	IC50 (human TLR8) [nM]	IC50 (human TLR9) [nM]
COc1cc(-c2[nH]nc(-c3cnc(C4CCN(CCS(C)(=O)=O)CC4)cn3)c2C(C)C)cn2ncnc12 [Example 397]	221	463	> 50000
Cc1cc(-c2[nH]nc(-c3ccc(C4CCNCC4)nn3)c2C(C)C)cn2ncnc12 [Example 344]	39	12.7	> 50000
COCC(C)N[C@H]1CC[C@H](NC(=O)c2n[nH]c(-c3cc(C)c4ncnn4c3)c2C(C)C)CC1 (stereo partly drawn) [Example 146]	19.7	0.92	16300
Cc1cc(-c2[nH]nc(-c3ccc(N)cc3)c2C(C)C)cn2ncnc12 [Example 233]	2.3	0.59	> 50000
Cc1cc(-c2[nH]nc(C(=O)NCC3CN(C)CCO3)c2C(C)C)cn2ncnc12 (stereo not drawn) [Example 134]	1.23	1.28	16100
Cc1cc(-c2[nH]nc(C(N)=O)c2C(C)C)cn2ncnc12 [Example 29]	18.4	1.91	216
Cc1cc(-c2[nH]nc(C(=O)N[C@H]3CC[C@H](N(CCC(C)C)CCC(C)C)CC3)c2C(C)C)cn2ncnc12 [Example 108]	1.34	4.49	5700
Cc1cc(-c2[nH]nc(C(=O)NC3CCOCC3)c2C(C)C)cn2ncnc12 [Example 28]	39	265	645
Cc1cc(-c2[nH]nc(-c3ccc(N)nc3)c2C(C)C)cn2ncnc12 [Example 227]	4.43	11.4	18200
Cc1cc(-c2[nH]nc(C3CCN(C(=O)CCN(C)C)CC3)c2C(C)C)cn2ncnc12 [Example 208, 3-(dimethylamino)-1-(4-(4-isopropyl-5-(8-methyl-[1,2,4]triazolo[1,5-a]pyridin-6-yl)-1H-pyrazol-3-yl)piperidin-1-yl)propan-1-one]	1	0.52	20000
Cc1cc(-c2[nH]nc(-c3cccc(N(C)C)c3)c2C(C)C)cn2ncnc12 [Example 245]	2.6	0.65	22900
Cc1cc(-c2[nH]nc(C(=O)NC3CCNCC3)c2C(C)C)cn2ncnc12 [Example 43, 4-isopropyl-5-(8-methyl-[1,2,4]triazolo[1,5-a]pyridin-6-yl)-N-(piperidin-4-yl)-1H-pyrazole-3-carboxamide]	2.54	5.22	> 50000
Cc1cc(-c2[nH]nc(C(=O)N3CC4CNCC4C3)c2C(C)C)cn2ncnc12 (stereo not drawn) [Example 59]	5.83	47.2	> 50000
Cc1cc(-c2[nH]nc(-c3cn4c(n3)CNCC4)c2C(C)C)cn2ncnc12 [Example 219]	637	713	46200
Cc1cc(-c2[nH]nc(-c3nc4c(s3)CN(C)CC4)c2C(C)C)cn2ncnc12 [Example 256]	34.3	31.3	16900
CCN1CCc2nc(-c3n[nH]c(-c4cc(C)c5ncnn5c4)c3C(C)C)ncc2C1 [Example 249]	6.34	1.19	19800
Cc1cc(-c2[nH]nc(-c3nc4c(s3)CN(C3CCN(C(C)C)CC3)CC4)c2C(C)C)cn2ncnc12 [Example 254]	26.8	22.7	29200
COc1cc(-c2[nH]nc(-c3ccc(C4CCN(CC(N)=O)CC4)cc3)c2C(C)C)cn2ncnc12 [compound 322]	15.7	4.67	35800
Cc1cc(-c2[nH]nc(C(=O)N[C@H]3CC[C@H](N(C)C)CC3)c2C(C)C)cn2ncnc12 [Example 82]	4.69	43.6	> 50000
CCCN1CCc2nc(-c3n[nH]c(-c4cc(OC)c5ncnn5c4)c3C(C)C)sc2C1 [Example 260]	170	138	> 50000
COc1cc(-c2[nH]nc(-c3ccc(C4CCN(C(=O)CN(C)C)CC4)cn3)c2C(C)C)cn2ncnc12 [Example 402, 2-(dimethylamino)-1-(4-(6-(4-isopropyl-5-(8-methoxy-[1,2,4]triazolo[1,5-a]pyridin-6-yl)-1H-pyrazol-3-yl)pyridin-3-yl)piperidin-1-yl)ethan-1-one]	35.1	297	> 50000
Cc1cc(-c2[nH]nc(C(=O)N3CCOCC3)c2C(C)C)cn2ncnc12 [Example 30]	4.37	2.07	14800
COc1c(C)c(-c2[nH]nc(-c3ccc(C4CCNCC4)cn3)c2C(C)C)cn2ncnc12 [Example 346]	6.3	7.94	19200
Cc1cc(-c2[nH]nc(C3CCC(NC4CCN(C(C)C)CC4)CC3)c2C(C)C)cn2ncnc12 (single isomer, unassigned) [Example 288]	15.2	0.52	14200
